From patent publication US4395399A, “Glycopeptides and method for preparing same” (Institut Bioorganicheskoi Khimii Imeni M.M. Shemyakina …, priority 1977, dated 1983)
Read-outs that look alike come from different tables or passages of the source. Where a SMILES comes first, the peptide text is derived from it. [ ]: non-standard residue; d: D form.

Tested on: 8-day Krocker sarcoma (S-180)
Settings: for Necrotic reaction shown after 24 h, number of animals / Death of animals / Inhibition of the tumor growth, % of the control: intravenous; for Necrotic reaction shown after 24 h, number of animals: mice with 8-day sarcoma S-180, 24 h; for Death of animals / Necrosis caused by constituent components of the glycopeptides: mice with sarcoma S-180; for Inhibition of the tumor growth, % of the control: tumor volume or weight after 4-5 days
[1] = single intravenous dose 100 mg/kg

Compound | Necrotic reaction shown after 24 h, number of animals (dose 100 mg/kg) | Death of animals (dose 100 mg/kg) | Inhibition of the tumor growth, % of the control (dose 100 mg/kg) | Necrotic reaction shown after 24 h, number of animals (dose 250 mg/kg) | Death of animals (dose 250 mg/kg) | Inhibition of the tumor growth, % of the control (dose 250 mg/kg) | Necrosis caused by constituent components of the glycopeptides | Necrotic reaction shown after 24 h, number of animals (dose 50 mg/kg) | Inhibition of the tumor growth, % of the control (dose 50 mg/kg) | also measured
CC(=O)N[C@H]1C(O)O[C@H](CO)[C@@H](O)[C@@H]1O[C@H](C)C(=O)O (stereo partly shown) [VII, N-acetylmuramic acid] | 0/8 | 0 | 37 % of the control | 0/8 | 25 | 52 % of the control | not caused | – | – | –
CC(=O)NC1C(OC2C(CO)OC(O)C(NC(C)=O)C2OC(C)C(=O)NC(C)C(=O)NC(CCC(=O)O)C(N)=O)OC(CO)C(O)C1O [Compound II, N-acetylglucosaminyl/1→4/N-acetylmuramyl-alanyl-D-isoglutamine] | 4/5 | 0 | 70 % of the control | – | – | – | – | 8/10 | 12 % of the control | Death of animals (dose 50 mg/kg): 0; Hemopoiesis [1]: not inhibited; Number of leukocytes [1]: substantially increased; Signs of toxicity [1]: no signs of toxicity are noticed; Test animals with selective necrosis of the tumor tissue covering substantially the entire tumor (single intravenous dose 100 mg/kg, 24 hours after administration): four out of five; Inhibition of the growth of the malignant tumor as compared to the control animals (single intravenous dose 100 mg/kg, after 5 days): 70%
amide of N^ε -[N-acetylglucosaminyl/1→4/N-acetylmuramyl-alanyl-D-glutamyl-D-iso- asparaginyl]-lysyl-D-alanine [IV] | 3/5 | – | 41 % of the control | – | – | – | – | 3/5 | 23 % of the control | –
/1→4/-bis-[N-acetylglucosaminyl/1→4/N-acetylmuramyl-alanyl-D- isoglutamine] [V] | – | – | – | – | – | – | – | 3/5 | 66 % of the control | Death of animals (dose 50 mg/kg): 0
C[C@H](N)C(=O)N[C@H](CCC(=O)O)C(=O)O [XI, Ala-D-Glu] (H-Ala-[dE]-OH) | 0/8 | 0 | 37.3 % of the control | – | – | – | not caused | – | – | –
CC(=O)N[C@H]1C(O)O[C@H](CO)[C@@H](O)[C@@H]1O (stereo partly shown) [VI, N-acetylglucosamine] | – | – | – | 0.5 | 0 | 0 % of the control | not caused | – | – | –
CC(=O)NC1C(OC2C(CO)OC(O)C(NC(C)=O)C2OC(C)C(=O)NC(C)C(=O)NC(CCC(=O)O)C(=O)O)OC(CO)C(O)C1O [III, N-acetylglucosaminyl/1→4/N-acetylmuramyl-alanyl-D-glutamic acid] | 3/5 | – | – | – | – | – | – | 4/10 | – | –
CC(=O)N[C@H]1C(O[C@H]2[C@H](O[C@H](C)C(=O)O)[C@@H](NC(C)=O)C(O)O[C@@H]2CO)O[C@H](CO)[C@@H](O)[C@@H]1O (stereo partly shown) [VIII, N-acetylglucosaminyl/1→4/N-acetylmuramic acid] | 0/10 | 0 | 0 % of the control | 0/10 | 0 | 0 % of the control | not caused | – | – | –
Amide of N^ε [Alanyl-D-glutamyl-D-iso-asparaginyl]-lysyl-D-alanine [XII] | – | – | – | 0/5 | – | 0 % of the control | – | – | – | –
C[C@H](N)C(=O)N[C@H](CCC(=O)O)C(N)=O [X, Ala-D-Glu-NH2] (H-Ala-[dE]-NH2) | 0/10 | 0 | +28 % of the control | – | – | – | not caused | – | – | –
N-acetyl-glucosaminyl/1→4/N-acetylmuramylalanine [Compound I] | 3/5 | 0 | 19 % of the control | – | – | – | – | 2/5 | 17 % of the control | Death of animals (dose 50 mg/kg): 0
CC(=O)N[C@H]1C(O[C@H]2[C@H](O[C@H](C)C(=O)O)[C@@H](NC(C)=O)C(O[C@H]3[C@H](O)[C@@H](NC(C)=O)C(O[C@H]4[C@H](O[C@H](C)C(=O)O)[C@@H](NC(C)=O)C(O)O[C@@H]4CO)O[C@@H]3CO)O[C@@H]2CO)O[C@H](CO)[C@@H](O)[C@@H]1O (stereo partly shown) [IX, N-acetylglucosaminyl /1→4/-N-acetylmuramyl/1→4/N-acetylglucosaminyl/1→4/N- acetylmuramic acid] | – | – | – | 0/10 | 0 | 0 % of the control | not caused | – | – | –
